Experimental data taken from US6441027B1, “Method of regulating the female reproductive system through angiogenesis inhibitors” (Children's Medical Center Corporation, priority 1996, dated 2002).
Entries after “also recorded” stand apart in the source; their conditions may differ.

What was measured:
Assay type in all cases: in vivo, mouse
[1] = test system: embryo and yolk sac blood vessels; experiment: Whole mount anti-CD31/PECAM staining of embryo and yolk sac on E9; settings: 30 mg/kg on E7, studied E9
Procedure: Mice were treated with 30 mg/kg AGM-1470 following the same protocol in Example 2. The control and AGM-1470 treated embryos were studied on E9 by whole mount immunohistochemistry for CD-31/PECAM to stain blood vessels. The fetus and the yolk sack in the mice given AGM-1470 on E1 were excluded due to necrosis by E9. […] Loss of vascular development in the embryo could be due to either a direct effect of AGM-1470 on the embryonic vasculature or to a secondary effect caused by failure of normal placental and yolk sac development.
The whole-mount immunohistochemistry with monoclonal antibody to mouse PECAM (CD31) was performed essentially as described by Schlaeger^29 Embryos were dissected from the uterus and fixed in 4% paraformaldehyde, PBS at 4° Celsius overnight. The fixed embryos were subsequently rinsed in PBS at room temperature and dehydrated in a methanol series. The dehydrated embryos were bleached in 5% hydrogen peroxide in methanol for 4 to 5 hours at room temperature and then rinsed twice in methanol. Embryos were stored at −20° Celsius until used. The bleached embryos were rehydrated and blocked with PBSMT (3% instant skim milk, 0.1% Triton X-100, PBS) for one hour twice at room temperature. The embryos were then incubated with a 1:10 diluted hybridoma supernatant in PBSMT at 4° Celsius overnight. On the next day, the embryos were washed with PBSMT at 4° Celsius five times (1 hour each) and then incubated with a biotinylated secondary anti-rat IgG, mouse adsorbed (Vector Laboratories, Burlingame, Calif.) in PBSMT at 4° Celsius overnight. On the third day, the embryos were rinsed in PBSMT at 4° Celsius five times (1 hour each) and then incubated in avidin and horse radish conjugated biotin in PBSMT (1:100 dilution) (Vectastatin Elite Standard ABC Kit, Vector Laboratories) overnight at 4° Celsius. On the fourth day embryos were rinsed in PBSMT at 4° Celsius five time (1 hour each) and finally in PBT (0.2% BSA, 0.1% Triton-X100, PBS) for 20 minutes at room temperature. […]

[2] = test system: endometrium; experiment: Cycling mice, chronic treatment: examination of the uterus
Procedure: Mice were randomized and received either AGM-1470 30 mg/kg s.c. or saline 0.1 ml s.c. every other day for 16 days (approximately four estrous cycles). On the last of four days of treatment mice were housed with male mice to see if successful mating and conception would occur. On day 16 mice were weighed and sacrificed by cervical dislocation. The ovaries were resected enbloc, fixed in Carnoy's fixative, and embedded in paraffin according to standard histologic techniques. Sections were cut at 6 microns and stained with hematoxylin and eosin.
To determine microvessel density, Carnoy's-fixed tissue sections were pretreated with 2 microgram/ml Proteinase K (Boehringer Mannheim, Mannheim, Germany) at 37° Celsius for 15 minutes before staining with a rabbit polyclonal antibody against mouse factor VIII (Dako, Carpinteria, Calif.). Positive staining was detected by incubating sequentially with a secondary antibody against rabbit conjugated to horseradish peroxidase (Dako) and diaminobenzidine tetrahydrochloride (DAB) (Dako) as a chromagen. Sections were counterstained with methyl green (Schmid & Co., Stuttgart, Germany) and mounted in Permount (Fisher, Fair Lawn, N.J.). Microvessel density was determined by light microscopy. Each count was expressed as the number of microvessels identified within a selected field. Ten fields per section were counted.
To determine the rate of cellular proliferation, staining for proliferating cell nuclear antigen (PCNA) was performed. Carnoy's-fixed sections were pretreated in target unmasking fluid (Signet Laboratories, Dedham, Mass.) for 10 minutes at 90° for antigen retrieval. Immunohistochemical staining was performed with an anti-PCNA murine monoclonal antibody (Signet). Positive staining was detected by using horse radish peroxidase-conjugated secondary (Dako) and tertiary (Dako) antibodies, and DAB as a chromagen. The PCNA labeling index was determined by counting the percentage of stained cells under light microscopy within selected 630× fields. A minimum of 1,000 cells were counted for each specimen.
For staining of apoptotic cells, Carnoy's-fixed sections were treated according to the protocol of the Apoptag manufacturer (Oncor, Gaithersburg, Md.) except the pretreatment step with Proteinase K was omitted. After TdT labeling of specimens, positive staining was detected with a peroxidase-labeled antibody against deoxyuridine peroxidase substrate. Sections were counterstained as described above. The apoptotic index was determined by counting the percentage of stained cells under light microscopy within selected 630× fields. A minimum of 1,000 cells was counted for each specimen.
In experiments with AGM-1470 treatment of pregnant mice, transverse sections through embryos contained within the uterus were stained. Microvessels density was determined at the intersite endometrium and PCNA was determined in the decidual stroma. In experiments with AGM-1470 treatment of non-pregnant mice, transverse sections through the endometrium were stained for factor VIII, PCNA or apoptotic cells at the level of the endometrial lumen at its widest diameter. Statistical analysis was performed with ANOVA on ranked data to account for the expected variation of endometrial angiogenesis and glandular proliferation in the control due to different phases of the estrous cycle.

[3] = test system: inseminated mice; experiment: Gross morphology and hematoxylin/eosin histology of gravid uteri, embryos and ovaries
Procedure: FIGS. 1A-1I show the gross morphology of gravid mouse uteri. Inseminated mice were treated with AGM-1470 30 mg/kg s.c. or saline on Embryonic day 1 (E1) or E7, and mice were sacrificed at E9, 13 or 18. FIG. 1A, 1B, and 1C show the normal pattern of growth of fetuses on E9, E13 and E18.
FIGS. 2A-2F show hematoxylin/eosin staining of mouse embryos on E9. Inseminated mice were treated with AGM-1470 […] s.c. or saline on E1 or E7, and mice were sacrificed at E9. Uteri were resected and stained with hematoxylin/eosin as described in the material and methods section. […] (P−placenta, D=decidua).
Gravid uteri and ovaries were resected enbloc, weighed, fixed and Carnoy's fixative, and embedded in paraffin according to standard histological techniques. Sections were cut at 6 to 10 micrometers and stained with hematoxylin and eosin. When AGM-1470 was injected on E14, fetuses were allowed to come to term.

[4] = 30 mg/kg every other day for 16 days
[5] = 30 mg/kg every other day for 16 days, n=6
[6] = 30 mg/kg every other day for 16 days, vs control

## CO[C@@H]1[C@H](OC(=O)NC(=O)CCl)CC[C@]2(CO2)[C@H]1[C@@]1(C)O[C@@H]1CC=C(C)C [AGM-1470, O-chloroacetylcarbamoyl fumagillol]
[1]
  CD31 labeled vessels in heart and liver bud: almost a complete loss of CD31 labeled vessels
  capillary density of embryo (CD31): loss of capillary density; also recorded: diffuse decrease in capillary density
  capillary density of yolk sac (CD31): decrease in density and intercapillary distance of capillaries; also recorded: decreased capillary density
[2]; [4]
  decrease in microvessel density (Factor VIII) vs control: 41%
  decrease in number of proliferating vessels: 71%
  decrease in percentage of proliferating glandular epithelial cells (PCNA): 67%
  decrease in proliferation rate of endometrial stromal cells (PCNA): 68%
[2]; 30 mg/kg every other day for 16 days, n=5
  number of proliferating vessels: 5±2 vessels/X630 field
[2]; [5]
  endometrial glands: 3±2 glands/X250 field
  percentage of proliferating glandular epithelial cells (PCNA): 10%±3
  proliferation rate of endometrial stromal cells (PCNA): 5% ±2
[2]; [6]
  apoptotic index (Apo-Tag staining): not significantly different
  uterus thickness: consistently thinner
[2]; 30 mg/kg s.c. every other day for 16 days
  fewer endometrial glands than control: 63%
[3]; 30 mg/kg on E1
  placental development (histology): failure of placental development
[3]; 30 mg/kg on E7
  placental development (histology): inhibition of placental and fetal development; also recorded: decrease in nucleated red blood cells and labyrinth structure in the placenta
[3]; 30 mg/kg s.c. on E7
  gross morphology of gravid uteri: hemorrhage around the implantation sites by E13; also recorded: resorption by E18
[3]; both treated groups (E1 or E7)
  fetal histology on E9: Fetal disorganization
[3]; injected on E1
  embryo histology on E9: small, disorganized embryo
[3]; injected on E7
  nucleated red blood cells in E9 embryos: reduced nucleated red blood cells in the embryo; also recorded: marked decrease in nucleated red blood cells
[3]; single dose on E1 or E7, all time points
  histology of the ovaries: appeared normal
[3]; treated on E1, after E9
  gross morphology of gravid uteri: failure of further growth with resorption
